Measured values from patent publication US10167279B2 (NOVARTIS AG, priority 2014, dated 2019).

target: C-Raf FL (Homo sapiens (Human), UniProt P04049, Y340E/Y341E); experiment: In vitro Raf activity determination (Alpha Screen, phospho-MEK), C-Raf FL (full length, Y340E/Y341E); assay type: biochemical; settings: ATP 1 μM; 60 min pre-incubation; 1 hour reaction; column head does not say FL or TR
Outline: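 Sf9-expressed C-Raf incubated with biotinylated kinase-dead MEK1 (K97R) in 50 mM Tris pH 7.5, 15 mM MgCl2, 0.01% BSA, 1 mM DTT with compound, 60 min at room temperature. Phospho-MEK detected by anti-p-MEK AlphaScreen luminescence; IC50 by non-linear regression.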

Compound | IC50 [nM]
CCOc1ncc(-c2cc(NC(=O)c3cccc(C(F)(F)F)c3)cnc2C)cc1C1(CO)CCOC1 (stereo not shown) [Example 290, N-(6′-ethoxy-5′-(3-(hydroxymethyl)tetrahydrofuran-3-yl)-2-methyl-[3,3′-bipyridin]-5-yl)-3-(trifluoromethyl) benzamide] | 2
CCOc1ncc(-c2cc(NC(=O)c3ccnc(C(C)(C)F)c3)ccc2C)cc1C1(CO)CCOC1 (stereo not shown) [Example 291, N-(3-(6-ethoxy-5-(3-(hydroxymethyl)tetrahydrofuran-3-yl)pyridin-3-yl)-4-methylphenyl)-2-(2-fluoropropan-2-yl)isonicotinamide] | 1
CCOc1ncc(-c2cc(NC(=O)c3ccnc(C(C)(C)F)c3)cnc2C)cc1C1(CO)CCOC1 (stereo not shown) [Example 292, N-(6′-ethoxy-5′-(3-(hydroxymethyl)tetrahydrofuran-3-yl)-2-methyl-[3,3′-bipyridin]-5-yl)-2-(2-fluoropropan-2-yl)isonicotinamide] | 9
CCOc1ncc(-c2cc(NC(=O)c3ccnc(C(C)(C)C#N)c3)ccc2C)cc1C1(O)CCOC1 (stereo not shown) [Example 293, 2-(2-cyanopropan-2-yl)-N-(3-(6-ethoxy-5-(3-hydroxytetrahydro-furan-3-yl)pyridin-3-yl)-4-methylphenyl) isonicotinamide] | 2
CCOc1ncc(-c2cc(NC(=O)c3cccc(C(F)(F)F)c3)cnc2C)cc1C1(O)CCOC1 (stereo not shown) [Example 294, N-(6′-ethoxy-5′-(3-hydroxytetrahydro-furan-3-yl)-2-methyl-[3,3′-bipyridin]-5-yl)-3-(trifluoromethyl) benzamide] | 2
CCOc1ncc(-c2cc(NC(=O)c3ccnc(C(C)(C)F)c3)ccc2C)cc1C1(O)CCOC1 (stereo not shown) [Example 295, N-(3-(6-ethoxy-5-(3-hydroxytetra-hydrofuran-3-yl)pyridin-3-yl)-4-methylphenyl)-2-(2-fluoropropan-2-yl)isonicotinamide] | 1
CCOc1ncc(-c2cc(NC(=O)c3ccnc(C(C)(C)F)c3)cnc2C)cc1C1(O)CCOC1 (stereo not shown) [Example 296, N-(6′-ethoxy-5′-(3-hydroxytetrahydro-furan-3-yl)-2-methyl-[3,3′-bipyridin]-5-yl)-2-(2-fluoropropan-2-yl)isonicotinamide] | 4
CCOc1ncc(-c2cc(NC(=O)c3cccc(C(F)(F)F)c3)cnc2C)cc1C1(F)CCOC1 (stereo not shown) [Example 297, N-(6′-ethoxy-5′-(3-fluorotetrahydro-furan-3-yl)-2-methyl-[3,3′-bipyridin]-5-yl)-3-(trifluoro-methyl)benzamide] | 1
CCOc1ncc(-c2cc(NC(=O)c3ccnc(C(C)(C)F)c3)cnc2C)cc1C1(F)CCOC1 (stereo not shown) [Example 298, N-(6′-ethoxy-5′-(3-fluorotetrahydro-furan-3-yl)-2-methyl-[3,3′-bipyridin]-5-yl)-2-(2-fluoropropan-2-yl)isonicotinamide] | 2
Cc1ncc(NC(=O)c2cccc(C(F)(F)F)c2)cc1-c1cc(N2CCOC2=O)nc(C2(O)CCOCC2)c1 [Example 301, N-(2′-(4-hydroxytetrahydro-2H-pyran-4-yl)-2-methyl-6′-(2-oxooxazolidin-3-yl)-[3,4′-bipyridin]-5-yl)-3-(trifluoromethyl) benzamide] | 0.951
Cc1ncc(NC(=O)c2cccc(C(F)(F)F)c2)cc1-c1cc(NCCO)nc(C2(O)CCOCC2)c1 [Example 302, N-(2′-((2-hydroxyethyl)amino)-6′-(4-hydroxytetrahydro-2H-pyran-4-yl)-2-methyl-[3,4′-bipyridin]-5-yl)-3-(trifluoromethyl) benzamide] | 1.53
Cc1ccc(NC(=O)c2cc(C(F)(F)F)ccn2)cc1-c1cc(NCCO)nc(C2(O)CCOCC2)c1 [Example 303, N-(3-(2-((2-hydroxyethyl)amino)-6-(4-hydroxytetrahydro-2H-pyran-4-yl)pyridin-4-yl)-4-methylphenyl)-4-(trifluoromethyl) picolinamide] | 1.99
Cc1ccc(NC(=O)c2ccnc(C(F)(F)F)c2)cc1-c1cc(OCCO)nc(C2(O)CCOCC2)c1 [Example 305, N-(3-(2-(2-hydroxyethoxy)-6-(4-hydroxytetra-hydro-2H-pyran-4-yl)pyridin-4-yl)-4-methylphenyl)-2-(trifluoro-methyl) isonicotinamide] | 0.331
Cc1ccc(NC(=O)c2ccnc(C(F)(F)F)c2)cc1-c1cc(OCCO)nc(C2(F)CCOCC2)c1 [Example 306, N-(3-(2-(4-fluorotetrahydro-2H-pyran-4-yl)-6-(2-hydroxy-ethoxy)pyridin-4-yl)-4-methyl-phenyl)-2-(trifluoromethyl) isonicotinamide] | 0.83
Cc1ccc(NC(=O)c2ccnc(C(F)(F)F)c2)cc1-c1cc(C2CCOCC2)c(N(C)CCO)nn1 [Example 308] | 0.5
COCCOc1nnc(-c2cc(NC(=O)c3ccnc(C(F)(F)F)c3)ccc2C)cc1C1CCOCC1 [Example 315, N-(3-(6-(2-methoxyethoxy)-5-(tetrahydro-2H-pyran-4-yl)pyridazin-3-yl)-4-methylphenyl)-2-(trifluoromethyl) isonicotinamide] | 0.1
Cc1ccc(NC(=O)c2ccnc(C(F)(F)F)c2)cc1-c1cc(C2CCOCC2)c(OC(C)C)nn1 [Example 316, N-(3-(6-isopropoxy-5-(tetrahydro-2H-pyran-4-yl)pyridazin-3-yl)-4-methylphenyl)-2-(trifluoromethyl) isonicotinamide] | 0.1
CCOc1nnc(-c2cc(NC(=O)NCCC(C)(C)C)ccc2C)cc1C1CCOCC1 [Example 318, 1-(3,3-dimethylbutyl)-3-(3-(6-ethoxy-5-(tetrahydro-2H-pyran-4-yl)pyridazin-3-yl)-4-methylphenyl)urea] | 0.1
Cc1ccc(NC(=O)NCCC(C)(C)C)cc1-c1cc(OCCO)nc(C2CCOCC2)c1 [Example 319, 1-(3,3-dimethylbutyl)-3-(3-(2-(2-hydroxyethoxy)-6-(tetrahydro-2H-pyran-4-yl)pyridin-4-yl)-4-methylphenyl)urea] | 0.1
Cc1ccc(NC(=O)C2CCNC(C(F)(F)F)C2)cc1-c1cc(C2CCOCC2)nc(N2CCC(C)(N)CC2)c1 (stereo not shown) [Example 320] | 350

The next lines start with the values.

IC50 [nM] | Compound
0.1 | Cc1ccc(NC(=O)c2ccnc(C(F)(F)F)c2)cc1-c1cc(NCCO)nc(C2(O)COC2)c1 [Example 299, N-(3-(2-((2-hydroxyethyl)amino)-6-(3-hydroxyoxetan-3-yl)pyridin-4-yl)-4-methylphenyl)-2-(trifluoromethyl) isonicotinamide]
0.1 | Cc1ccc(NC(=O)c2cccc(C(F)(F)F)c2)cc1-c1cc(NCCO)nc(C2(O)COC2)c1 [Example 300, N-(3-(2-((2-hydroxyethyl)amino)-6-(3-hydroxyoxetan-3-yl)pyridin-4-yl)-4-methylphenyl)-3-(trifluoromethyl) benzamide]
0.08 | COCCNc1nnc(-c2cc(NC(=O)c3ccnc(C(F)(F)F)c3)ccc2C)cc1C1CCOCC1 [Example 307, N-(3-(6-((2-methoxyethyl)amino)-5-(tetrahydro-2H-pyran-4-yl)pyridazin-3-yl)-4-methylphenyl)-2-(trifluoromethyl)isonicotinamide]
0.02 | Cc1ccc(NC(=O)c2ccnc(C(F)(F)F)c2)cc1-c1cc(C2CCOCC2)c(N[C@@H](C)CO)nn1 [Example 309, (S)-N-(3-(6-((1-hydroxypropan-2-yl)amino)-5-(tetrahydro-2H-pyran-4-yl)pyridazin-3-yl)-4-methylphenyl)-2-(trifluoromethyl) isonicotinamide]
0.04 | Cc1ccc(NC(=O)c2ccnc(C(F)(F)F)c2)cc1-c1cc(C2CCOCC2)c(N[C@H](C)CO)nn1 [Example 310, (R)-N-(3-(6-((1-hydroxypropan-2-yl)amino)-5-(tetrahydro-2H-pyran-4-yl)pyridazin-3-yl)-4-methylphenyl)-2-(trifluoromethyl) isonicotinamide]
0.05 | Cc1ccc(NC(=O)c2ccnc(C(F)(F)F)c2)cc1-c1cc(C2CCOCC2)c(NC[C@H](C)O)nn1 [Example 311, (S)-N-(3-(6-((2-hydroxypropyl)amino)-5-(tetrahydro-2H-pyran-4-yl)pyridazin-3-yl)-4-methylphenyl)-2-(trifluoromethyl) isonicotinamide]
0.1 | Cc1ccc(NC(=O)c2ccnc(C(F)(F)F)c2)cc1-c1cc(C2CCOCC2)c(NC[C@@H](C)O)nn1 [Example 312, (R)-N-(3-(6-((2-hydroxypropyl)amino)-5-(tetrahydro-2H-pyran-4-yl)pyridazin-3-yl)-4-methylphenyl)-2-(trifluoromethyl) isonicotinamide]
0.07 | Cc1ccc(NC(=O)c2ccnc(C(F)(F)F)c2)cc1-c1cc(C2CCOCC2)c(OC2CCOCC2)nn1 [Example 313, N-(4-methyl-3-(5-tetrahydro-2H-pyran-4-yl-6-((tetrahydro-2H-pyran-4-yl)oxy)pyridazin-3-yl)phenyl)-2-(trifluoromethyl)isonicotinamide]
0.06 | CCN1CCC(Oc2nnc(-c3cc(NC(=O)c4ccnc(C(F)(F)F)c4)ccc3C)cc2C2CCOCC2)CC1 [Example 314, N-(3-(6-((1-ethylpiperidin-4-yl)oxy)-5-(tetrahydro-2H-pyran-4-yl)pyridazin-3-yl)-4-methylphenyl)-2-(trifluoromethyl) isonicotinamide]
0.09 | Cc1ccc(NC(=O)c2ccnc(C(F)(F)F)c2)cc1-c1cc(C2CCOCC2)nc(N2CCC(C)(N)CC2)c1 [Example 321, N-(3-(2-(4-amino-4-methylpiperidin-1-yl)-6-(tetrahydro-2H-pyran-4-yl)pyridin-4-yl)-4-methylphenyl)-2-(trifluoromethyl)isonicotinamide]
0.02 | N-(3-(2- (hydroxymethyl)-2- methyl-3-oxo-8- (tetrahydro-2H- pyran-4-yl)-3,4-dihydro- 2H- benzo[b][1,4]oxazin-6- yl)-4-methylphenyl)-5- (trifluoromethyl) pyridazine-3-carboxamide [Example 204]
